These results are taken from patent US9096559B2, “4-carboxybenzylamino derivatives as histone deacetylase inhibitors” (Merck Sharp & Dohme Corp., priority 2007, dated 2015).

Test [1] concerns the target histone deacetylase, subtype 1 (HDAC1) (Homo sapiens (Human), UniProt Q13547). The experiment in a line: HDAC1-Flag in vitro deacetylation assay. In kind it is biochemical. The note with it: IP = inflection point; read-out: HDAC1 IP (inflection point). The protocol: Novel compounds were tested for their ability to inhibit histone deacetylase, subtype 1 (HDAC1) using an in vitro deacetylation assay. The enzyme source for this assay was an epitope-tagged human HDAC1 complex immuno-purified from stably expressing mammalian cells. The substrate consisted of a commercial product containing an acetylated lysine side chain (BIOMOL Research Laboratories, Inc., Plymouth Meeting, Pa.). Upon deacetylation of the substrate by incubation with the purified HDAC1 complex, a fluorophore is produced that is directly proportional to the level of deacetylation.

For test [2], the system named is human cervical cancer (HeLa) and colon carcinoma (HCT116) cells. The experiment in a line: ATP (Vialight) cell proliferation assay, 72 hr. In kind it is cell-based. The note with it: IP = inflection point, cell line not given, read-out: Prol-72 hr IP (inflection point). How it is done: The novel compounds of the present invention were tested for their ability to inhibit proliferation of the human cervical cancer (HeLa) and colon carcinoma (HCT116) cells.
In this assay, also referred to as the Vialight Assay, cellular ATP levels are measured as a means of quantifying cellular proliferation. This assay makes use of a bioluminescent method from Cambrex (ViaLight PLUS, cat. #LT07-121). In the presence of ATP, luciferase converts luciferin to oxyluciferin and light. The amount of light produced (emission at 565 nm) is measured and correlates with a relative amount of proliferation. Human cervical cancer (HeLa) or colon carcinoma (HCT116) cells were incubated with vehicle or increasing concentrations of compound for 48, 72 or 96 hours. Cell proliferation was quantified by adding the cell lysis reagent (provided in the Vialight assay kit) directly to culture wells, followed by addition of the ATP-monitoring reagent (containing luciferase/luciferin). The amount of light produced is then measured (emission at 565 nm). The quantity of light produced, as measured by […], is directly proportional to the number of living cells in culture.

Sequence of histone deacetylase, subtype 1 (HDAC1) (Q13547 whole entry): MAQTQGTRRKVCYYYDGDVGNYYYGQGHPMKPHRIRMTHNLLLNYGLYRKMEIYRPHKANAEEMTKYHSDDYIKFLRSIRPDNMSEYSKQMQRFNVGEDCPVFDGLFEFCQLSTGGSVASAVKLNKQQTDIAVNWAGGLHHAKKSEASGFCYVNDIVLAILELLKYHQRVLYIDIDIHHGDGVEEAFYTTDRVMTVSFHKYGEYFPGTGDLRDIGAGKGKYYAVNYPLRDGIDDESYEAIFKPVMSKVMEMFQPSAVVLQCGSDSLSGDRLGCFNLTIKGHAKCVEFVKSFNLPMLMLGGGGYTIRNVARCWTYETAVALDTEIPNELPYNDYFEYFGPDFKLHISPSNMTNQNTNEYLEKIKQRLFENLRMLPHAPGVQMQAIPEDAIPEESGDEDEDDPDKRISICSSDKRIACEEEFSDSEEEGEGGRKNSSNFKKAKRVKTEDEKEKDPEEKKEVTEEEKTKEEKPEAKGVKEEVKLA

Turning to `Nc1ccc(-c2ccccc2)cc1NC(=O)c1ccc(CN2C(=O)OC[C@H]2Cc2ccccc2)cc1` [Example 119, N-(4-aminobiphenyl-3-yl)-4-{[(4R)-2-oxo-4-(phenylmethyl)-1,3-oxazolidin-3-yl]methyl}benzamide], the IC50 in test [1] was found to be 89 nM; in test [2], 1700 nM. The corresponding values for `Nc1ccc(-c2ccccc2)cc1NC(=O)c1ccc(CNC(=O)C2CC2)cc1` [Example 26, N-(4-aminobiphenyl-3-yl)-4-{[(cyclopropylcarbonyl)amino]methyl}benzamide] are 15 nM and 170 nM. The matching figures for `Nc1ccc(-c2cccc(F)c2)cc1NC(=O)c1ccc(CNc2ccncc2)cc1` [Example 68, N-(4-amino-3′-fluoro-3-biphenylyl)-4-[(4-pyridinylamino)methyl]benzamide]: 27 nM and 9100 nM.

Regarding `CN(C)S(=O)(=O)NCc1ccc(C(=O)Nc2cc(-c3cccs3)ccc2N)cc1` [Example 60, N-[2-amino-5-(2-thienyl)phenyl]-4-({[(dimethylamino)sulfonyl]amino}methyl)benzamide], the figures for the IC50 in test [1] and in test [2] were 17 nM and 260 nM, respectively. The corresponding values for `CC(C)COC(=O)NCc1ccc(C(=O)Nc2cc(-c3ccccc3)ccc2N)cc1` [Example 13, 2-methylpropyl[(4-{[(4-aminobiphenyl-3-yl)amino]carbonyl}phenyl)methyl]carbamate] are 45 nM and 390 nM.

Regarding `Nc1ccc(-c2cccs2)cc1NC(=O)c1ccc(CNC(=O)Cc2ccccn2)cc1` [Example 54, N-[2-amino-5-(2-thienyl)phenyl]-4-{[(pyridin-2-ylacetyl)amino]methyl}benzamide], the values for the IC50 in test [1] and in test [2] were 12 nM and 160 nM, respectively.

As for `CC(C)C(=O)NCc1ccc(C(=O)Nc2cc(-c3cccs3)ccc2N)cc1` [Example 40, N-[2-amino-5-(2-thienyl)phenyl]-4-{[(2-methylpropanoyl)amino]methyl}benzamide], the IC50 in test [1] worked out at 16 nM; in test [2] it was 150 nM. The matching figures for `Nc1ccc(-c2ccccc2)cc1NC(=O)c1ccc(CNc2ccncc2)cc1` [Example 61, N-(4-amino-3-biphenylyl)-4-[(4-pyridinylamino)methyl]benzamide]: 10 nM and 1700 nM. The corresponding values for `Nc1ccc(-c2ccccc2)cc1NC(=O)c1ccc(CNC(=O)Cc2cccnc2)cc1` [Example 51, N-(4-aminobiphenyl-3-yl)-4-{[(pyridin-3-ylacetyl)amino]methyl}benzamide] are 140 nM and 2100 nM. The matching figures for `CCOC(=O)NCc1ccc(C(=O)Nc2cc(-c3cccs3)ccc2N)cc1` [Example 16, ethyl {[4-({[2-amino-5-(2-thienyl)phenyl]amino}carbonyl)phenyl]methyl}carbamate]: 12 nM and 130 nM.

Consider `CN(Cc1ccc(C(=O)Nc2cc(-c3ccccc3)ccc2O)cc1)Cc1cnn(C)c1` [Example 114, N-(4-hydroxy-3-biphenylyl)-4-({methyl[(1-methyl-1H-pyrazol-4-yl)methyl]amino}methyl)benzamide], for which the IC50 in test [1] is 24 nM. `O=C(Nc1cc(-c2ccccc2)ccc1O)c1ccc(CN2CCOCC2)cc1` [Example 85, N-(4-hydroxy-3-biphenylyl)-4-(4-morpholinylmethyl)benzamide]: in test [1], the IC50 stood at 48 nM. Same read-out and setting: the value for `COC(=O)c1ccc(-c2ccc(N)c(NC(=O)c3ccc(CNC(=O)OCc4cccnc4)cc3)c2)cc1` [Example 2, methyl 4′-amino-3′-[({4-[({[(pyridin-3-ylmethyl)oxy]carbonyl}amino)methyl]phenyl}carbonyl)amino]biphenyl-4-carboxylate] was 81 nM.

`CC(C)CNCc1ccc(C(=O)Nc2cc(-c3ccccc3)ccc2O)cc1` [Example 73, N-(4-hydroxy-3-biphenylyl)-4-[(isobutylamino)methyl]benzamide]: the IC50 in test [1] was 110 nM. Still for that read-out and setting: in the case of `CN(CCc1ccccc1)Cc1ccc(C(=O)Nc2cc(-c3ccccc3)ccc2O)cc1` [Example 93, N-(4-hydroxy-3-biphenylyl)-4-{[methyl(2-phenylethyl)amino]methyl}benzamide] it was 340 nM. `Nc1ccc(-c2ccccc2)cc1NC(=O)c1ccc(CNC(=O)OCc2cccnc2)cc1` [Example 1, Pyridin-3-ylmethyl[(4-{[(4-aminobiphenyl-3-yl)amino]carbonyl}phenyl)methyl]carbamate]: the IC50 in test [2] was determined as 380 nM. For the compound `O=C(Nc1cc(-c2ccccc2)ccc1O)c1ccc(CNCCCN2CCCC2)cc1` [Example 82, N-(4-hydroxy-3-biphenylyl)-4-({[3-(1-pyrrolidinyl)propyl]amino}methyl)benzamide], the IC50 in test [1] was determined as 91 nM. Still for that read-out and setting: the value for `O=C(Nc1cc(-c2ccccc2)ccc1O)c1ccc(CN2CCc3ccccc3C2)cc1` [Example 90, 4-(3,4-dihydro-2(1H)-isoquinolinylmethyl)-N-(4-hydroxy-3-biphenylyl)benzamide] was 250 nM; that for `O=C(Nc1cc(-c2ccccc2)ccc1O)c1ccc(CNCCc2cccnc2)cc1` [Example 105, N-(4-hydroxy-3-biphenylyl)-4-({[2-(3-pyridinyl)ethyl]amino}methyl)benzamide] was 2500 nM. Same read-out and setting: the value for `CN1CCC(CNCc2ccc(C(=O)Nc3cc(-c4ccccc4)ccc3O)cc2)C1` (stereo not drawn) [Example 110] was 180 nM. With `CC(C)OC(=O)NCc1ccc(C(=O)Nc2cc(-c3ccccc3)ccc2N)cc1` [Example 11, 1-methylethyl[(4-{[(4-aminobiphenyl-3-yl)amino]carbonyl}phenyl)methyl]carbamate], in test [2], the IC50 amounted to 130 nM.

In the case of `O=C(Nc1cc(-c2ccccc2)ccc1O)c1ccc(CNCCNc2ccccc2)cc1` [Example 97, 4-{[(2-anilinoethyl)amino]methyl}-N-(4-hydroxy-3-biphenylyl)benzamide], the IC50 in test [1] worked out at 260 nM. Turning to `Nc1ccc(-c2cccs2)cc1NC(=O)c1ccc(CNC(=O)C2CCCCC2)cc1` [Example 45, N-[2-amino-5-(2-thienyl)phenyl]-4-{[(cyclohexylcarbonyl)amino]methyl}benzamide], the IC50 in test [2] is 190 nM.

As to `O=C(Nc1cc(-c2ccccc2)ccc1O)c1ccc(CNC2CCCC2)cc1` [Example 77, 4-[(cyclopentylamino)methyl]-N-(4-hydroxy-3-biphenylyl)benzamide], in test [1], the IC50 came to 150 nM. Same read-out and setting: the value for `O=C(Nc1cc(-c2ccccc2)ccc1O)c1ccc(CNc2ccncc2)cc1` [Example 84, N-(4-hydroxy-3-biphenylyl)-4-[(4-pyridinylamino)methyl]benzamide] was 9.9 nM.

For `Nc1ccc(-c2ccccc2)cc1NC(=O)c1ccc(CNC(=O)OCc2ccccc2)cc1` [Example 15, phenylmethyl[(4-{[(4-aminobiphenyl-3-yl)amino]carbonyl}phenyl)methyl]carbamate], in test [2], the IC50 worked out at 820 nM. As to `O=C(Nc1cc(-c2ccccc2)ccc1O)c1ccc(CNCCCc2ccncc2)cc1` [Example 109, N-(4-hydroxy-3-biphenylyl)-4-({[3-(4-pyridinyl)propyl]amino}methyl)benzamide], the IC50 in test [1] was determined as 100 nM. In the case of `COc1cccc(CNCc2ccc(C(=O)Nc3cc(-c4ccccc4)ccc3O)cc2)c1` [Example 117, N-(4-hydroxy-3-biphenylyl)-4-{[(3-methoxybenzyl)amino]methyl}benzamide], the IC50 in test [1] came to 4300 nM.

Regarding `CN(Cc1ccc(C(=O)Nc2cc(-c3ccccc3)ccc2O)cc1)c1ccncc1` [Example 103, N-(4-hydroxy-3-biphenylyl)-4-{[methyl(4-pyridinyl)amino]methyl}benzamide], the IC50 in test [1] was found to be 13 nM. As for `CN(C)CCNCc1ccc(C(=O)Nc2cc(-c3ccccc3)ccc2O)cc1` [Example 80, 4-({[2-(dimethylamino)ethyl]amino}methyl)-N-(4-hydroxy-3-biphenylyl)benzamide], the IC50 in test [1] amounted to 120 nM. As for `CN(Cc1ccc(C(=O)Nc2cc(-c3ccccc3)ccc2O)cc1)C1CCOC1` (stereo not drawn) [Example 112, N-(4-hydroxy-3-biphenylyl)-4-{[methyl(tetrahydro-3-furanyl)amino]methyl}benzamide], the IC50 in test [1] was determined as 43 nM. The same measure, in the same setting: in the case of `NCc1ccc(C(=O)Nc2cc(-c3ccccc3)ccc2O)cc1` [Example 8, 4-(aminomethyl)-N-(4-hydroxybiphenyl-3-yl)benzamide] it was 28 nM. Still for that read-out and setting: the value for `O=C(Nc1cc(-c2ccccc2)ccc1O)c1ccc(CNCCc2ccc(Br)cc2)cc1` [Example 72, 4-({[2-(4-bromophenyl)ethyl]amino}methyl)-N-(4-hydroxy-3-biphenylyl)benzamide] was 1800 nM; that for `CC1CCN(Cc2ccc(C(=O)Nc3cc(-c4ccccc4)ccc3O)cc2)CC1` [Example 87, N-(4-hydroxy-3-biphenylyl)-4-[(4-methyl-1-piperidinyl)methyl]benzamide] was 220 nM; that for `O=C(Nc1cc(-c2ccccc2)ccc1O)c1ccc(CNc2ccccc2)cc1` [Example 76, 4-(anilinomethyl)-N-(4-hydroxy-3-biphenylyl)benzamide] was 89 nM.
